Measured values: US20230085307A1, “PYRIDAZINONE COMPOUND AND HERBICIDE” (NISSAN CHEMICAL CORPORATION, priority 2019, published 2023)

Each molecule was assayed on late watergrass (assay: Test Example 1: herbicidal activity, application before weed generation under submerged conditions (Table 16, symbol A)). Conditions: 320 g/ha applied herbicide.
Format: in vivo, late watergrass (Echinochloa oryzicola)
How it was run: (§1)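 Alluvial soil was flooded to 4 cm depth, weed seeds were sown mixed and 2.5-leaf rice seedlings were transplanted. On sowing day, the compound's emulsion, diluted in water to a set dose, was applied to the water surface. Plants grew at 25–30 °C and were scored 0–5 after three weeks.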

Compound	Herbicidal effect on A: late watergrass (grade 0-5)
C=CCOC(=O)Oc1c(C)nn(C)c(=O)c1-c1c(-c2ccc(OC(F)F)cc2)sc2ccc(F)cc12 [2-294]	5 (Herbicidal rate of 90% or more (almost completely withered))
COc1cccc(S(=O)(=O)Oc2c(C)nn(C)c(=O)c2-c2c(-c3ccc(OC(F)F)cc3)sc3ccc(F)cc23)c1 [2-313]	2 (Herbicidal rate of 20% or more and less than 40%)

The molecules below were run on Japanese bulrush (assay: Test Example 1: herbicidal activity, application before weed generation under submerged conditions (Table 16, symbol B)). Conditions: 320 g/ha applied herbicide.
Format: in vivo, Japanese bulrush (Schoenoplectus juncoides)
How it was run: as §1

Compound	Herbicidal effect on B: Japanese bulrush (grade 0-5)
C=CCOC(=O)Oc1c(C)nn(C)c(=O)c1-c1c(-c2ccc(OC(F)F)cc2)sc2ccc(F)cc12 [2-294]	5 (Herbicidal rate of 90% or more (almost completely withered))
COc1cccc(S(=O)(=O)Oc2c(C)nn(C)c(=O)c2-c2c(-c3ccc(OC(F)F)cc3)sc3ccc(F)cc23)c1 [2-313]	3 (Herbicidal rate of 40% or more and less than 70%)

Each molecule was assayed on late watergrass (assay: Test Example 2: herbicidal activity, application during weed generation under submerged conditions (Table 17, symbol A)). Conditions: AAH 320 g/ha; application during weed generation, submerged conditions.
Format: in vivo, late watergrass (Echinochloa oryzicola)
How it was run: (§2)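 3-wk visual-criteria score after one water-surface dose. Emulsion formulation, water-diluted to set rate; applied at 1–2 leaf stage; alluvial soil, 4 cm standing water; seeds co-sown; greenhouse 25–30° C.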

Compound	herbicidal effect rating, A: late watergrass
C=CCOC(=O)Oc1c(C)nn(C)c(=O)c1-c1c(-c2ccc(OC(F)F)cc2)sc2ccc(F)cc12 [2-294]	3 (Herbicidal rate of 40% or more and less than 70%)
COc1cccc(S(=O)(=O)Oc2c(C)nn(C)c(=O)c2-c2c(-c3ccc(OC(F)F)cc3)sc3ccc(F)cc23)c1 [2-313]	3 (Herbicidal rate of 40% or more and less than 70%)

These molecules were tested on oval-leafed pondweed (assay: Test Example 2: herbicidal activity, application during weed generation under submerged conditions (Table 17, symbol C)). Conditions: AAH 320 g/ha; application during weed generation, submerged conditions.
Format: in vivo, oval-leafed pondweed (Monochoria vaginalis)
How it was run: as §2

Compound	herbicidal effect rating, C: oval-leafed pondweed
C=CCOC(=O)Oc1c(C)nn(C)c(=O)c1-c1c(-c2ccc(OC(F)F)cc2)sc2ccc(F)cc12 [2-294]	3 (Herbicidal rate of 40% or more and less than 70%)
COc1cccc(S(=O)(=O)Oc2c(C)nn(C)c(=O)c2-c2c(-c3ccc(OC(F)F)cc3)sc3ccc(F)cc23)c1 [2-313]	3 (Herbicidal rate of 40% or more and less than 70%)

Each molecule was assayed on barnyard grass (assay: Test Example 3: herbicidal effect by foliage application, Wagner pot (Table 18, symbol H)). Conditions: amount of applied herbicide 320 g/ha.
Format: in vivo, barnyard grass (Echinochloa crus-galli)
How it was run: (§3)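 Plants were sown in alluvial soil held under 0.1–0.5 cm standing water and grown 14 days in a greenhouse at 25–30 °C. An emulsifiable formulation, water-diluted to the set dose, was then sprayed onto the foliage, and effects were scored three weeks later using previously defined criteria.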

Compound	herbicidal effect on H: barnyard grass
C=CCOC(=O)Oc1c(C)nn(C)c(=O)c1-c1c(-c2ccc(OC(F)F)cc2)sc2ccc(F)cc12 [2-294]	5 (Herbicidal rate of 90% or more (almost completely withered))
COc1cccc(S(=O)(=O)Oc2c(C)nn(C)c(=O)c2-c2c(-c3ccc(OC(F)F)cc3)sc3ccc(F)cc23)c1 [2-313]	5 (Herbicidal rate of 90% or more (almost completely withered))

Each molecule was assayed on Chinese sprangletop (assay: Test Example 3: herbicidal effect by foliage application, Wagner pot (Table 18, symbol D)). Conditions: amount of applied herbicide 320 g/ha.
Format: in vivo, chinese sprangletop (Leptochloa chinensis)
How it was run: as §3

Compound	herbicidal effect on D: Chinese sprangletop
C=CCOC(=O)Oc1c(C)nn(C)c(=O)c1-c1c(-c2ccc(OC(F)F)cc2)sc2ccc(F)cc12 [2-294]	4 (Herbicidal rate of 70% or more and less than 90%)
COc1cccc(S(=O)(=O)Oc2c(C)nn(C)c(=O)c2-c2c(-c3ccc(OC(F)F)cc3)sc3ccc(F)cc23)c1 [2-313]	2 (Herbicidal rate of 20% or more and less than 40%)

What follows are molecules tested on rice flat sedge (assay: Test Example 3: herbicidal effect by foliage application, Wagner pot (Table 18, symbol E)). Conditions: amount of applied herbicide 320 g/ha.
Format: in vivo, rice flat sedge (Cyperus iria)
How it was run: as §3

Compound	herbicidal effect on E: rice flat sedge
C=CCOC(=O)Oc1c(C)nn(C)c(=O)c1-c1c(-c2ccc(OC(F)F)cc2)sc2ccc(F)cc12 [2-294]	5 (Herbicidal rate of 90% or more (almost completely withered))
COc1cccc(S(=O)(=O)Oc2c(C)nn(C)c(=O)c2-c2c(-c3ccc(OC(F)F)cc3)sc3ccc(F)cc23)c1 [2-313]	5 (Herbicidal rate of 90% or more (almost completely withered))

The molecules below were run on Italian ryegrass (assay: Test Example 4: herbicidal effect by soil treatment (Table 19, symbol K)). Conditions: amount of applied herbicide 320 g/ha.
Format: in vivo, Italian ryegrass (Lolium multiflorum)
How it was run: (§4)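 In this soil treatment, the formulated compound reached the seeds only through the soil: seeds were buried about 1.5 cm deep in sterilized diluvial soil, then the diluted emulsion was sprayed over the surface. After three weeks at 25° C. to 30° C. in a greenhouse, effects were graded on criteria from an earlier test.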

Compound	herbicidal effect on K: Italian ryegrass
C=CCOC(=O)Oc1c(C)nn(C)c(=O)c1-c1c(-c2ccc(OC(F)F)cc2)sc2ccc(F)cc12 [2-294]	5 (Herbicidal rate of 90% or more (almost completely withered))
COc1cccc(S(=O)(=O)Oc2c(C)nn(C)c(=O)c2-c2c(-c3ccc(OC(F)F)cc3)sc3ccc(F)cc23)c1 [2-313]	5 (Herbicidal rate of 90% or more (almost completely withered))

What follows are molecules tested on windgrass (assay: Test Example 4: herbicidal effect by soil treatment (Table 19, symbol L)). Conditions: amount of applied herbicide 320 g/ha.
Format: in vivo, windgrass (Apera spica-venti)
How it was run: as §4

Compound	herbicidal effect on L: windgrass
C=CCOC(=O)Oc1c(C)nn(C)c(=O)c1-c1c(-c2ccc(OC(F)F)cc2)sc2ccc(F)cc12 [2-294]	4 (Herbicidal rate of 70% or more and less than 90%)
COc1cccc(S(=O)(=O)Oc2c(C)nn(C)c(=O)c2-c2c(-c3ccc(OC(F)F)cc3)sc3ccc(F)cc23)c1 [2-313]	0 (Herbicidal rate of 5% or less (almost no effect))

What follows are molecules tested on redroot pigweed (assay: Test Example 4: herbicidal effect by soil treatment (Table 19, symbol N)). Conditions: amount of applied herbicide 320 g/ha.
Format: in vivo, redroot pigweed (Amaranthus retroflexus)
How it was run: as §4

Compound	herbicidal effect on N: redroot pigweed
C=CCOC(=O)Oc1c(C)nn(C)c(=O)c1-c1c(-c2ccc(OC(F)F)cc2)sc2ccc(F)cc12 [2-294]	5 (Herbicidal rate of 90% or more (almost completely withered))
COc1cccc(S(=O)(=O)Oc2c(C)nn(C)c(=O)c2-c2c(-c3ccc(OC(F)F)cc3)sc3ccc(F)cc23)c1 [2-313]	5 (Herbicidal rate of 90% or more (almost completely withered))

These molecules were tested on green foxtail (assay: Test Example 5: herbicidal effect by foliage application, plastic box (Table 20, symbol G)). Conditions: foliage application, AAH 320 g/ha, evaluated three weeks after application.
Format: in vivo, green foxtail (Setaria viridis)
How it was run: (§5)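 Plants were sown into sterilized diluvial soil under about 1.5 cm cover and kept in a greenhouse at 25° C. to 30° C. Fourteen days on, foliage received an even spray of the diluted emulsion. Herbicidal or crop effect was judged three weeks afterwards.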

Compound	G: green foxtail, herbicidal effect (criteria 0-5)
C=CCOC(=O)Oc1c(C)nn(C)c(=O)c1-c1c(-c2ccc(OC(F)F)cc2)sc2ccc(F)cc12 [2-294]	5 (Herbicidal rate of 90% or more (almost completely withered))
COc1cccc(S(=O)(=O)Oc2c(C)nn(C)c(=O)c2-c2c(-c3ccc(OC(F)F)cc3)sc3ccc(F)cc23)c1 [2-313]	5 (Herbicidal rate of 90% or more (almost completely withered))

What follows are molecules tested on barnyard grass (assay: Test Example 5: herbicidal effect by foliage application, plastic box (Table 20, symbol H)). Conditions: foliage application, AAH 320 g/ha, evaluated three weeks after application.
Format: in vivo, barnyard grass (Echinochloa crus-galli)
How it was run: as §5

Compound	H: barnyard grass, herbicidal effect (criteria 0-5)
C=CCOC(=O)Oc1c(C)nn(C)c(=O)c1-c1c(-c2ccc(OC(F)F)cc2)sc2ccc(F)cc12 [2-294]	5 (Herbicidal rate of 90% or more (almost completely withered))
COc1cccc(S(=O)(=O)Oc2c(C)nn(C)c(=O)c2-c2c(-c3ccc(OC(F)F)cc3)sc3ccc(F)cc23)c1 [2-313]	5 (Herbicidal rate of 90% or more (almost completely withered))

The molecules below were run on wild oat (assay: Test Example 5: herbicidal effect by foliage application, plastic box (Table 20, symbol I)). Conditions: foliage application, AAH 320 g/ha, evaluated three weeks after application.
Format: in vivo, wild oat (Avena fatua)
How it was run: as §5

Compound	I: wild oat, herbicidal effect (criteria 0-5)
C=CCOC(=O)Oc1c(C)nn(C)c(=O)c1-c1c(-c2ccc(OC(F)F)cc2)sc2ccc(F)cc12 [2-294]	3 (Herbicidal rate of 40% or more and less than 70%)
COc1cccc(S(=O)(=O)Oc2c(C)nn(C)c(=O)c2-c2c(-c3ccc(OC(F)F)cc3)sc3ccc(F)cc23)c1 [2-313]	2 (Herbicidal rate of 20% or more and less than 40%)

What follows are molecules tested on blackgrass (assay: Test Example 5: herbicidal effect by foliage application, plastic box (Table 20, symbol J)). Conditions: foliage application, AAH 320 g/ha, evaluated three weeks after application.
Format: in vivo, blackgrass (Alopecurus myosuroides)
How it was run: as §5

Compound	J: blackgrass, herbicidal effect (criteria 0-5)
C=CCOC(=O)Oc1c(C)nn(C)c(=O)c1-c1c(-c2ccc(OC(F)F)cc2)sc2ccc(F)cc12 [2-294]	4 (Herbicidal rate of 70% or more and less than 90%)
COc1cccc(S(=O)(=O)Oc2c(C)nn(C)c(=O)c2-c2c(-c3ccc(OC(F)F)cc3)sc3ccc(F)cc23)c1 [2-313]	4 (Herbicidal rate of 70% or more and less than 90%)

The molecules below were run on Italian ryegrass (assay: Test Example 5: herbicidal effect by foliage application, plastic box (Table 20, symbol K)). Conditions: foliage application, AAH 320 g/ha, evaluated three weeks after application.
Format: in vivo, Italian ryegrass (Lolium multiflorum)
How it was run: as §5

Compound	K: Italian ryegrass, herbicidal effect (criteria 0-5)
C=CCOC(=O)Oc1c(C)nn(C)c(=O)c1-c1c(-c2ccc(OC(F)F)cc2)sc2ccc(F)cc12 [2-294]	5 (Herbicidal rate of 90% or more (almost completely withered))
COc1cccc(S(=O)(=O)Oc2c(C)nn(C)c(=O)c2-c2c(-c3ccc(OC(F)F)cc3)sc3ccc(F)cc23)c1 [2-313]	5 (Herbicidal rate of 90% or more (almost completely withered))

What follows are molecules tested on redroot pigweed (assay: Test Example 5: herbicidal effect by foliage application, plastic box (Table 20, symbol N)). Conditions: foliage application, AAH 320 g/ha, evaluated three weeks after application.
Format: in vivo, redroot pigweed (Amaranthus retroflexus)
How it was run: as §5

Compound	N: redroot pigweed, herbicidal effect (criteria 0-5)
C=CCOC(=O)Oc1c(C)nn(C)c(=O)c1-c1c(-c2ccc(OC(F)F)cc2)sc2ccc(F)cc12 [2-294]	5 (Herbicidal rate of 90% or more (almost completely withered))
COc1cccc(S(=O)(=O)Oc2c(C)nn(C)c(=O)c2-c2c(-c3ccc(OC(F)F)cc3)sc3ccc(F)cc23)c1 [2-313]	5 (Herbicidal rate of 90% or more (almost completely withered))
